Assay results reported in patent US20250049809A1, “INHIBITORS OF MUTANT IDH1 AND IDH2” (Board of Regents, The University of Texas System, priority 2023, published 2025).

Key:
TF1 IDH2R140Q = TF1 IDH2R140Q (Homo sapiens (Human), UniProt P48735, R140Q); experiment: TF1 IDH2 R140Q 2-HG cellular assay; assay type: cell-based; details: extracellular 2HG, 24 hr treatment, IDH2 mutant-TF1 isogenic cell line
Method: The IDH2 mutant-TF1 isogenic cell line (ATCC CRL-20031G) used to test cellular inhibition is an erythroblast cell line that was isolated from the marrow of a patient with erythroleukemia with the IDH2R140Q mutation. These cells are maintained in RPMI-1640 (ATCC 30-2001) culture media with 10% FBS, 10 U/mL Penicillin-Streptomycin, and 2 ng/mL GM-CSF. Thirty thousand cells are plated in polystyrene tissue culture treated 384 well cell culture plates (PerkinElmer 6007680) (30,000 cells/well) approximately 2 hours before compound treatment. Cells are then treated with different concentrations of test compounds (5 μM to 0.3 pM) for 24 hr. Extracellular 2HG levels are measured from cell culture media. For analyte extraction, 30 μL of culture media is transferred to 120 μL 100% acetonitrile in a deep 384 well plate and mixed well, followed by 5 min centrifugation at 3700 rpm at room temperature. 100 μL of supernatant is transferred to a flat bottom 384 well plate. Samples are run on the Agilent RapidFire-Mass Spectrometry instrument to detect 2HG levels. The samples from each well were aspirated for 600 ms and loaded onto a HILIC solid-phase extraction cartridge (Agilent) followed by a wash step for 3000 ms with 90% acetonitrile containing 5 mM ammonium acetate. Analytes were then eluted off the cartridge into the Agilent 6460 Triple Quad mass spectrometer with a 4500 ms elution step using 30% acetonitrile containing 5 mM ammonium acetate. The HILIC cartridge was then re-equilibrated by 90% acetonitrile containing 5 mM ammonium acetate for 500 ms. The 2HG was detected by an Agilent 6460 Triple Quad mass spectrometer in negative ion mode. Multiple reaction monitoring was used to quantify 2HG using the precursor ion and product ion at m/z 147.03 and 128.9, respectively. The percent activity of each sample is calculated by using DMSO and control compound treated references, and IC50 values are obtained using the GeneData Screener data analysis program.

U87 IDH1R132H = U87 IDH1R132H (Homo sapiens (Human), UniProt O75874, R132H); experiment: U87 IDH1 R132H 2-HG cellular assay; assay type: cell-based; details: extracellular 2HG, 24 h treatment, IDH1 mutant-U-87 isogenic cell line
Method: The IDH1 mutant-U-87 isogenic cell line (ATCC HTB-14IG) used to test cellular inhibition is a glioma IDH1R132H mutant isogenic line derived from the parental U-87MG cell line. These cells are maintained in EMEM (ATCC 30-2003) culture media with 10% FBS and 10 U/mL Penicillin-Streptomycin. Twelve thousand cells are plated in polystyrene 384 well cell culture plates (Greiner Bio-One 781091) (12,000 cells/well) approximately 18 hours before compound treatment. Immediately before treatment, the cells are washed twice with PBS, followed by culture media replenishing. Cells are then treated with different concentrations of test compounds (5 μM to 0.3 pM) for 24 h. Extracellular 2HG levels are measured from cell culture media. For analyte extraction, 30 μL of culture media is transferred to 120 uL 100% acetonitrile in a deep 384 well plate and mixed well, followed by 5 min centrifugation at 3700 rpm at room temperature. 100 μL of supernatant is transferred to a flat bottom 384 well plate. Samples are run on the Agilent RapidFire-Mass Spectrometry instrument to detect 2HG levels. The samples from each well were aspirated for 600 ms and loaded onto a HILIC solid-phase extraction cartridge (Agilent) followed by a wash step for 3000 ms with 90% acetonitrile containing 5 mM ammonium acetate. Analytes were then eluted off the cartridge into the Agilent 6460 Triple Quad mass spectrometer with a 4500 ms elution step using 30% acetonitrile containing 5 mM ammonium acetate. The HILIC cartridge was then re-equilibrated by 90% acetonitrile containing 5 mM ammonium acetate for 500 ms. The 2HG was detected by an Agilent 6460 Triple Quad mass spectrometer in negative ion mode. Multiple reaction monitoring was used to quantify 2HG using the precursor ion and product ion at m/z 147.03 and 128.9, respectively. The percent activity of each sample is calculated by using DMSO and control compound treated references, and IC50 values are obtained using the GeneData Screener data analysis program.

WT IDH1 = WT IDH1 (Homo sapiens (Human), UniProt O75874); experiment: WT IDH1 enzymatic activity assay (NADPH fluorescence); assay type: biochemical; details: enzyme assay
Method: The enzymatic activity of WT IDH1 was assessed by measuring the fluorescence of the NADPH generated in the enzymatic reaction. The assay was performed in 384 well, white ProxiPlates (PerkinElmer, 6008280) in assay buffer containing 50 mM Hepes (Life Technologies, 15630080), 50 mM KCl (Teknova, P0327), 10 mM MgCl2 (Sigma-Aldrich, M1028), 1 mM DTT (Sigma-Aldrich, 43815), 0.02% BSA (Sigma-Aldrich, A3059) at pH 7.5. The final reaction volume was 10 μL. Stock solutions of the test compounds were prepared in 100% DMSO (Sigma, D2650) and serially diluted 1:3 using 100% DMSO. 50 nL of compound were then transferred to the assay plate using the Beckman Coulter ECHO 650 Acoustic Liquid Handler for a final DMSO concentration of 0.5%. 5 μL of WT IDH1 were added to the assay plate for a final concentration of 0.5 nM. 5 μL of assay buffer alone were added to negative control wells. 5 μL of an isocitrate (Sigma-Aldrich, 58790) and NADP (Sigma-Aldrich, N5755) mixture were added to the assay plate for a final concentration of 5 μM and 15 μM, respectively. Fluorescence of NADPH (excitation: 350 nm, emission 450 nm) was immediately measured kinetically for approximately 15 minutes using the BioTek Synergy Neo plate reader.

Chain of WT IDH1 (O75874 whole entry): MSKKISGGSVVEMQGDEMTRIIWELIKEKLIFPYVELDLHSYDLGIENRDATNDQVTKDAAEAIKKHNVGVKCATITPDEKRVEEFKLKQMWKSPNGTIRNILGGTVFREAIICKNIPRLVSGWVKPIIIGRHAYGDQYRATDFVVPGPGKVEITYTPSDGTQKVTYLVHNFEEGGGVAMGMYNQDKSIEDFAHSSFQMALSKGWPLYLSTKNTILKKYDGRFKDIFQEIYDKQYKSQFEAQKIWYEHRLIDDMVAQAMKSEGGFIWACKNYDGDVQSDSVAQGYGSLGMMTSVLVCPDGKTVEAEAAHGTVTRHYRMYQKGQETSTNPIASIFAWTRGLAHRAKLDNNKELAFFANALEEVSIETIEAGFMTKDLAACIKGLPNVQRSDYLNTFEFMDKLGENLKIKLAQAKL
Chain of U87 IDH1R132H (O75874 whole entry R132H): as the sequence (O75874 whole entry) above, with R132H counted along it
Chain of TF1 IDH2R140Q (P48735 40-452 R140Q): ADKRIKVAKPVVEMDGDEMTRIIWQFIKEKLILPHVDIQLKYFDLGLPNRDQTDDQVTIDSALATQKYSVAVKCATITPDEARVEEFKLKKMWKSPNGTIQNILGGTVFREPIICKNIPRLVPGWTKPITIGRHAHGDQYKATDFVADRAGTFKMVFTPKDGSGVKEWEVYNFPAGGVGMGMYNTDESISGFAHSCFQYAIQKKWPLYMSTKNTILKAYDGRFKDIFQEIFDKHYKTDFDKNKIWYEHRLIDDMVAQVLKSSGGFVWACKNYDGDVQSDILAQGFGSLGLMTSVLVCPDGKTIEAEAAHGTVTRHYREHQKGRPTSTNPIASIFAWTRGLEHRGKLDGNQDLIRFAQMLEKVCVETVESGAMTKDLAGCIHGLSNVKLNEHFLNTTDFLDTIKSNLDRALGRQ

Row | SMILES | IC50 (TF1 IDH2R140Q) | IC50 (U87 IDH1R132H) | IC50 (WT IDH1)
1 | C=CC(=O)N1CCN(C2CCCC/C=C/CN3C(=O)OCc4cnc(nc43)N[C@@H](C)c3ccc2cc3)CC1 (stereo partly drawn) [Example 3, (3S,E)-5-(4-acryloylpiperazin-1-yl)-3-methyl-1^1,1^4-dihydro-1^2H-2-aza-1(7,1)-pyrimido[4,5-d][1,3]oxazina-4(1,4)-benzenacyclododecaphan-10-en-1^2-one] | 0.277 µM | 0.00014 µM | 3.17 µM
2 | C=CC(=O)N1CCN(C2CCCCCCCN3C(=O)OCc4cnc(nc43)N[C@@H](C)c3ccc2cc3)CC1 (stereo partly drawn) [Example 4, (3S)-5-(4-acryloylpiperazin-1-yl)-3-methyl-1^1,1^4-dihydro-1^2H-2-aza-1(7,1)-pyrimido[4,5-d][1,3]oxazina-4(1,4)-benzenacyclododecaphan-1^2-one] | 0.282 µM | 0.0002 µM | > 16.7 µM
